Source: the NIST ThermoML archive (doi:10.1021/je700186v)
Numbers after ± are expanded uncertainties.

Conditions: Crystal; visual observation

`C1CN2CCN1CC2` [1,4-diazabicyclo[2.2.2]octane] gave a Normal melting temperature of 159.30 ± 1.1 °C.
